US9724334B1, “Method for treating a neurodegenerative disease or depression comprising administering derivatives of 2-amino-2-(1-dodecyl-1H-1,2,3-triazol-4-yl)propane-1,3-diol” (Kyungpook National University Industry-Academic Cooperation …, priority 2016, dated 2017)

Columns and labels:
[1] = molecular target: T1, ASM (acid sphingomyelinase) (Homo sapiens, UniProt P17405); assay: ASM activity in fibroblasts derived from Alzheimer's disease patients (PS1 fibroblasts); type: cell-based; set-up: dose or concentration left out as unconfirmed; settings: for change of ASM activity: PS1 fibroblasts with increased ASM activity, versus untreated PS1 fibroblasts
T1 construct: fibroblasts (PS1 fibroblasts) derived from Alzheimer's disease patients, followed by the measurement of the change of ASM activity; host or cells: human fibroblast cell lines (PS1, from Alzheimer's disease patients)
T1 sequence (P17405 47-631): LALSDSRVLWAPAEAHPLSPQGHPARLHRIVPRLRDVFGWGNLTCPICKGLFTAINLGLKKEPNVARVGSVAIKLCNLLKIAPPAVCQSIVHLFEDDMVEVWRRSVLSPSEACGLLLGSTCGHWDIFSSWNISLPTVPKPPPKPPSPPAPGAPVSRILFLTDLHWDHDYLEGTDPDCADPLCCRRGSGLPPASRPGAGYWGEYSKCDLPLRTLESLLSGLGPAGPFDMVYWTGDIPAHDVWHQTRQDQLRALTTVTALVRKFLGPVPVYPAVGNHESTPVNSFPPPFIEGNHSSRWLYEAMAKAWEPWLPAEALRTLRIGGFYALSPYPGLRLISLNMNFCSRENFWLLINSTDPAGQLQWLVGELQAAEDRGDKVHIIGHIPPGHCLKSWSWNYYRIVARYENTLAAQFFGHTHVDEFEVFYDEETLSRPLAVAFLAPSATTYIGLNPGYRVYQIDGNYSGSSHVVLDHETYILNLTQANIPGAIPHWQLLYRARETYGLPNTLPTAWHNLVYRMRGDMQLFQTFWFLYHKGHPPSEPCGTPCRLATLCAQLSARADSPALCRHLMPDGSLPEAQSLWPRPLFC
Experimental: Human fibroblast cell lines (normal and PS1) were obtained from Coriell Institute and cultured in DMEM containing 15% FBS under the condition of 5% CO2 at 37° C. Subsequently, the cell lines were treated with the ASM inhibitory compound of the Chemical Formula 1, amitriptyline (AMI) and FTY720, followed by measuring the change of ASM activity. The concentration levels of ASM were measured as follows. Specifically, a microliter mouse plasma, brain tissue and 3 μl of fibroblast samples were mixed with ASM activity buffer and stored at 37° C. 114 μl of ethanol was added to terminate the hydrolysis reaction, followed by centrifugation. 30 μl of the supernatant was transferred to a glass vial, of which 5 μl was applied to the UPLC system. The ASM concentration levels were quantified by comparison with Bodipy (aminoacetaldehyde) conjugated with sphingomyelin and ceramide. Extraction and quantification of the sphingomyelin and ceramide were performed by extracting lipids from known method samples and resuspending the dried lipid extract in 25 μl of 0.2% Igepal CA-630 (Sigma-Aldrich). Each lipid level was quantified using the UPLC system. In order to confirm the ASM inhibitory effect of the compound developed according to the present invention, the ASM inhibitory compound of the Chemical Formula 2, AMI and FTY720 were treated […] concentration, respectively, in the fibroblasts (PS1 fibroblasts) derived from Alzheimer's disease patients, followed by the measurement of the change of ASM activity.

[2] = molecular target: T2, ASM (acid sphingomyelinase) (Mus musculus, UniProt Q04519); assay: ASM concentration levels in plasma and brain tissue of APP/PS1 mice after feeding via drinking water; type: in vivo; settings: 100 mg/kg/day via drinking water; for ASM concentration level in brain tissues / ASM concentration level in plasma: 9.5 month-old APP/PS1 mice, versus unfed APP/PS1 mice
T2 construct: from tissue; host or cells: plasma and brain tissue of APP/PS1 transgenic mice (C57BL/6 background)
T2 sequence (Q04519 45-627): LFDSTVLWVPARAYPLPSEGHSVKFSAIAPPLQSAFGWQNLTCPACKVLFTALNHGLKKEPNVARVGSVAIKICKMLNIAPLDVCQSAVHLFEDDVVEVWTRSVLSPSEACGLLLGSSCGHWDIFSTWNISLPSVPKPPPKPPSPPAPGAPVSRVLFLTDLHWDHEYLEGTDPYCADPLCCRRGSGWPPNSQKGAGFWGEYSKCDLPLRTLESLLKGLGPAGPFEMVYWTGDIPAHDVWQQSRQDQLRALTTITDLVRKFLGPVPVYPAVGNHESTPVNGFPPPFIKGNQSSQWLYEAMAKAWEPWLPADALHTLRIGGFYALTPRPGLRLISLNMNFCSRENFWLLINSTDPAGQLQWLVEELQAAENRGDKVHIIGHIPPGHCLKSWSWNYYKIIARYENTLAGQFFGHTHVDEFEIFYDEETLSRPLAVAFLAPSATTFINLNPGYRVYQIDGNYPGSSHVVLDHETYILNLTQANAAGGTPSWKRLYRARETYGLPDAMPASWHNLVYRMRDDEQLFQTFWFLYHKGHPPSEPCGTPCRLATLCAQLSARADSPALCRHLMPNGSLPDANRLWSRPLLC
Excerpt: IACUC (Kyungpook National University Institutional Animal Care and Use Committee) approved the present mouse experiment. A transgenic mouse line overexpressing APPswe (hAPP695swe) or PS1 (presenilin-1M146V) was used based on C57BL/6 mouse (Charles River, UK) (hereinafter, APP mouse: APPswe-overexpressing mouse, PS1 mouse: presenilin-1M146V overexpressing mouse; GlaxoSmithKline). To confirm the therapeutic effect of the novel ASM inhibitory compounds, the novel ASM inhibitory compound or AMI were fed via drinking water at a dose of 100 mg/kg/day to mice at 5.5 months of age. Three months after the feeding, behavioral analysis on the mice was performed, followed by sampling of mouse brain tissues (FIG. 3). The concentration levels of ASM were measured as follows. Specifically, a microliter mouse plasma, brain tissue and 3 μl of fibroblast samples were mixed with ASM activity buffer and stored at 37° C. 114 μl of ethanol was added to terminate the hydrolysis reaction, followed by centrifugation. 30 μl of the supernatant was transferred to a glass vial, of which 5 μl was applied to the UPLC system. The ASM concentration levels were quantified by comparison with Bodipy (aminoacetaldehyde) conjugated with sphingomyelin and ceramide. Extraction and quantification of the sphingomyelin and ceramide were performed by extracting lipids from known method samples and resuspending the dried lipid extract in 25 μl of 0.2% Igepal CA-630 (Sigma-Aldrich). Each lipid level was quantified using the UPLC system. Using an experimental animal model APP/PS1 mouse for Alzheimer's disease patients, ASM concentration levels in plasma and brain tissues were measured after administration of AMI, which is the most widely used as an ASM inhibitor, and the novel ASM inhibitory compound of the Chemical Formula 2.

APP/PS1 mice [3] = assay: Amyloid-β deposition in brain of APP/PS1 mice (thioflavin S staining, Aβ40 and Aβ42 immunofluorescence); type: in vivo, mouse; settings: 100 mg/kg/day via drinking water; for Aβ40 deposition / Aβ42 deposition: brain tissue immunofluorescence; for Aβ40 deposition / Aβ42 deposition / fibrillary Aβ deposition (thioflavin S): versus APP/PS1 mice; for fibrillary Aβ deposition (thioflavin S): cerebral cortex and hippocampus
Excerpt: IACUC (Kyungpook National University Institutional Animal Care and Use Committee) approved the present mouse experiment. A transgenic mouse line overexpressing APPswe (hAPP695swe) or PS1 (presenilin-1M146V) was used based on C57BL/6 mouse (Charles River, UK) (hereinafter, APP mouse: APPswe-overexpressing mouse, PS1 mouse: presenilin-1M146V overexpressing mouse; GlaxoSmithKline).
(§1) To confirm the therapeutic effect of the novel ASM inhibitory compounds, the novel ASM inhibitory compound or AMI were fed via drinking water at a dose of 100 mg/kg/day to mice at 5.5 months of age. Three months after the feeding, behavioral analysis on the mice was performed, followed by sampling of mouse brain tissues (FIG. 3).
(§2) After fixing the cerebrum and hippocampus of the test mice, 0.5% thioflavin S (Sigma-Aldrich), anti-20G10 antibodies (Mouse, 1:1000) against Aβ, 42 and anti-G30 antibodies (rabbit, 1:1000) against Aβ, 40, anti-GFAP antibodies (rabbit, 1:500, DAKO) were cultured together. The above sites were analyzed using a laser scanning confocal microscope equipped with Fluoview SV1000 imaging software (Olympus FV1000, Japan) or an Olympus BX51 microscope. Percentage of area of stained area to total tissue area was quantified and analyzed using Metamorph software (Molecular Devices).
In order to confirm the effect of the novel ASM inhibitory compound of the Chemical Formula 2 on the lesion of Alzheimer's disease, the ASM inhibitory compound of the Chemical Formula 2 and AMI were administered orally for four months, respectively, as shown in FIG. 3.
To begin with, the profile of Aβ of Alzheimer's disease was identified. First, according to known methods in the art, the cerebral cortex and hippocampus of the mice were stained with thioflavin S (ThioS), confirming the fibrillary amyloid-β deposition. In addition, amyloid-β deposition was confirmed by carrying out the Aβ40 and Aβ42 immunofluorescence.

APP/PS1 mice [4] = assay: Morris water maze (MWM), learning and memory in APP/PS1 mice; type: in vivo, mouse; settings: 100 mg/kg/day via drinking water; for spatial memory, cognitive and memory formation disability: versus unfed APP/PS1 mice
Experimental: as §1
(§3) Morris water maze (MWM) and fear conditioning experiments were conducted to identify potential effects on learning and memory. For MWM, the mice were learned the task four times a day for 10 days, followed by the removal of the platform at the 11th day and subsequently a probe trial. On the first day of the fear conditioning, the mice were placed in the conditioning chamber and subjected to sound stimulation (10 kHz, 70 dB) and electrical stimulation (0.3 mA, 1s). On the second day, their memory was checked without stimulation in the same conditioning chamber as on the first day. On the third day, memory tests were conducted for fear when only sound stimulation was given in another conditioning chamber. Open field tests and dark & light tests were conducted to assess activity and anxiety. In the open field test, the mice were placed in a square box for 10 minutes to measure their overall activity and time spent wandering the wall and center. In the dark & light test, the mice were placed in a rectangular box composed of a dark box and a bright box for 10 minutes to measure the time spent in each box, the number of round trips, and the time when the mice entered the bright box for the first time.
In order to determine the potential effect of the novel ASM inhibitory compound of the present invention on learning and cognition in the animal models of Alzheimer's disease, the MWM (Morris water maze) and the fear conditioning test were performed, respectively.

APP/PS1 mice [5] = assay: Fear conditioning test in APP/PS1 mice; type: in vivo, mouse; settings: 100 mg/kg/day via drinking water
Experimental: as §1
as §3, with “In the dark & light test, the mice were placed in a rectangular box composed of a dark box and a bright box for 10 minutes to measure the time spent in each box, the number of round trips, and the time when the mice entered the bright box for the first time.” left out

APP/PS1 mice [6] = assay: Open field test and dark & light test (activity and anxiety) in APP/PS1 mice; type: in vivo, mouse; settings: 100 mg/kg/day via drinking water, versus APP/PS1 mice
Experimental: as §1
as §3, with “In the dark & light test, the mice were placed in a rectangular box composed of a dark box and a bright box for 10 minutes to measure the time spent in each box, the number of round trips, and the time when the mice entered the bright box for the first time.” left out

APP/PS1 mice [7] = assay: Astrocytes (GFAP immunofluorescence) in cerebral cortex of APP/PS1 mice; type: in vivo, mouse; settings: 100 mg/kg/day via drinking water, versus APP/PS1 mice
Experimental: as §1, §2
(§4) In order to determine the effect of the novel ASM inhibitory compounds according to the present invention on the change of nerve inflammation in the APP/PS1 mice, the present inventors observed a change in astrocytes of their brains.

APP/PS1 mice [8] = assay: Real-time quantitative PCR of inflammatory cytokines (TNF-α, IL-1b, IL-6) in brain of APP/PS1 mice; type: in vivo, mouse; settings: mRNA, cerebral cortex, 100 mg/kg/day via drinking water, versus wild-type
Experimental: as §1
Real-time quantitative PCR was used to measure the expression levels of inflammatory cytokines (TNF-α, IL-1b, and IL-6). Total RNAs were extracted from brain tissues using RNeasy Plus mini kit (Qiagen, Korea, Ltd.), while cDNAs were synthesized from 5 μg of total RNAs using a kit from Clontech (Mountain View, Calif.). Also, using Corbett research RG-6000 real-time PCR instrument, PCR was performed at 95° C. for 10 minutes; 95° C. for 10 seconds; 58° C. for 15 seconds; 72° C. for 20 seconds as one cycle, while real-time quantitative PCR was performed in which 40 cycles were repeated.
as §4

APP/PS1 mice [9] = assay: Western blotting of autophagy-related proteins (LC3, Beclin-1, cathepsin D, p62) in brain tissue of APP/PS1 mice; type: in vivo, mouse
Experimental: as §1
Expression of the following genes was analyzed using Western blotting. First, antibodies against LC3, Becklin-1, p62 (All of them were purchased from Cell Signaling Technologies), Cathepsin D (R&D systems) and β-actin (Santa Cruz) were used, while densitometric quantification was performed using ImageJ Software (US National Institutes of Health).
In order to verify the mechanism of the ASM inhibitory compound of the Chemical Formula 2 in the autophagy-related pathways upon its administration, the conversion of LC3-I into LC3-II, and the expression levels of Beclin-1, cathepsin D and p62 in the brain tissue samples of the WT mice, APP/PS1 mice, and APP/PS1 mice treated with the ASM inhibitory compound of the Chemical Formula 2 which were 9.5 months old, respectively, were confirmed by Western blotting experiments.

[10] = 9.5 months old APP/PS1 mice, treated versus untreated

change of ASM activity [1]	ASM concentration level in brain tissues [2]	ASM concentration level in plasma [2]	SMILES	Aβ40 deposition (APP/PS1 mice [3])	Aβ42 deposition (APP/PS1 mice [3])	fibrillary Aβ deposition (thioflavin S) (APP/PS1 mice [3])	spatial memory, cognitive and memory formation disability (APP/PS1 mice [4])	other results
markedly reduced	remarkably low	remarkably low	CN(C)CCC=C1c2ccccc2CCc2ccccc21 [AMI, amitriptyline, reference compound]	significantly lower	significantly lower	significantly lower	improved	–
markedly reduced	remarkably low	remarkably low	CCCCCCCCCCCCn1cc(C(N)(CO)CO)nn1 [Chemical Formula 2, 2-amino-2-(1-dodecyl-1H-1,2,3-triazol-4-yl)propane-1,3-diol]	significantly lower	significantly lower	significantly lower	improved	ASM inhibitory effect compared with the other substances (AMI, FTY720) ([1]; PS1 fibroblasts): more remarkably effective in inhibiting ASM activity than the other substances; ASM inhibition in plasma and brain tissues compared with AMI ([2]; APP/PS1 mice): more significantly effective in inhibiting ASM activity than AMI; amyloid-β deposition compared with mice treated with AMI (APP/PS1 mice [3]): more remarkably reduced; cognitive improvement compared with AMI (APP/PS1 mice [4]): more pronounced; memory in the fear conditioning test (contextual and tone tasks) (APP/PS1 mice [5]): effect of improving the memory; activity and anxiety (APP/PS1 mice [6]): significantly improved; activity of astrocytes (GFAP) (APP/PS1 mice [7]): significantly decreased; gene expression of IL-1b (APP/PS1 mice [8]): restored to their normal levels; gene expression of IL-6 (APP/PS1 mice [8]): restored to their normal levels; gene expression of TNF-α (APP/PS1 mice [8]): restored to their normal levels; conversion of LC3-I to LC3-II (APP/PS1 mice [9]; [10]): decreased; expression level of cathepsin D (APP/PS1 mice [9]; [10]): decreased; expression level of p62 (APP/PS1 mice [9]; [10]): decreased; expression of Beclin-1 (APP/PS1 mice [9]; 9.5 months old, WT, APP/PS1 and treated APP/PS1 mice compared): little difference
markedly reduced	–	–	CCCCCCCCc1ccc(CCC(N)(CO)CO)cc1 [FTY720, reference compound]	–	–	–	–	–
